One data set deals with human Nav1.8 (Homo sapiens (Human), UniProt Q9Y5Y9). Put plainly: QPatch 48 HTX voltage-clamp electrophysiology, half inactivation state (V1/2) protocol, HEK293-Nav1.8 cells. The class given is cell-based. The note with it: HEK293 cells expressing human Nav1.8, human Navβ1 and human TREK1, P2 current. In outline:
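HEK293 cells co-expressing Navβ1 and TREK1 were voltage-clamped from −100 mV: a 20 ms step to 0 mV, 8 s inactivation at −46 mV, 20 ms at −100 mV, then a 20 ms P2 test step to 0 mV, repeated every 15 s. P2 current was normalized to vehicle and full block, corrected for run-down, and Hill-fitted (4–6 concentrations) for IC50.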
In general terms: The patch-clamp technique gives a direct electrical read-out from membranes.

The values below come from patent US20250368647A1, “NITROGEN CONTAINING CONDENSED 2,3-DIHYDROQUINAZOLINONE COMPOUNDS AS NAV1.8 INHIBITORS” (GLAXOSMITHKLINE INTELLECTUAL PROPERTY DEVELOPMENT LIMITED, priority 2022, published 2025).

Structures can show the parent of a compound that is named as a salt. Where two headings read alike, the source gives them in different places.

Sequence of human Nav1.8 (Q9Y5Y9 whole entry): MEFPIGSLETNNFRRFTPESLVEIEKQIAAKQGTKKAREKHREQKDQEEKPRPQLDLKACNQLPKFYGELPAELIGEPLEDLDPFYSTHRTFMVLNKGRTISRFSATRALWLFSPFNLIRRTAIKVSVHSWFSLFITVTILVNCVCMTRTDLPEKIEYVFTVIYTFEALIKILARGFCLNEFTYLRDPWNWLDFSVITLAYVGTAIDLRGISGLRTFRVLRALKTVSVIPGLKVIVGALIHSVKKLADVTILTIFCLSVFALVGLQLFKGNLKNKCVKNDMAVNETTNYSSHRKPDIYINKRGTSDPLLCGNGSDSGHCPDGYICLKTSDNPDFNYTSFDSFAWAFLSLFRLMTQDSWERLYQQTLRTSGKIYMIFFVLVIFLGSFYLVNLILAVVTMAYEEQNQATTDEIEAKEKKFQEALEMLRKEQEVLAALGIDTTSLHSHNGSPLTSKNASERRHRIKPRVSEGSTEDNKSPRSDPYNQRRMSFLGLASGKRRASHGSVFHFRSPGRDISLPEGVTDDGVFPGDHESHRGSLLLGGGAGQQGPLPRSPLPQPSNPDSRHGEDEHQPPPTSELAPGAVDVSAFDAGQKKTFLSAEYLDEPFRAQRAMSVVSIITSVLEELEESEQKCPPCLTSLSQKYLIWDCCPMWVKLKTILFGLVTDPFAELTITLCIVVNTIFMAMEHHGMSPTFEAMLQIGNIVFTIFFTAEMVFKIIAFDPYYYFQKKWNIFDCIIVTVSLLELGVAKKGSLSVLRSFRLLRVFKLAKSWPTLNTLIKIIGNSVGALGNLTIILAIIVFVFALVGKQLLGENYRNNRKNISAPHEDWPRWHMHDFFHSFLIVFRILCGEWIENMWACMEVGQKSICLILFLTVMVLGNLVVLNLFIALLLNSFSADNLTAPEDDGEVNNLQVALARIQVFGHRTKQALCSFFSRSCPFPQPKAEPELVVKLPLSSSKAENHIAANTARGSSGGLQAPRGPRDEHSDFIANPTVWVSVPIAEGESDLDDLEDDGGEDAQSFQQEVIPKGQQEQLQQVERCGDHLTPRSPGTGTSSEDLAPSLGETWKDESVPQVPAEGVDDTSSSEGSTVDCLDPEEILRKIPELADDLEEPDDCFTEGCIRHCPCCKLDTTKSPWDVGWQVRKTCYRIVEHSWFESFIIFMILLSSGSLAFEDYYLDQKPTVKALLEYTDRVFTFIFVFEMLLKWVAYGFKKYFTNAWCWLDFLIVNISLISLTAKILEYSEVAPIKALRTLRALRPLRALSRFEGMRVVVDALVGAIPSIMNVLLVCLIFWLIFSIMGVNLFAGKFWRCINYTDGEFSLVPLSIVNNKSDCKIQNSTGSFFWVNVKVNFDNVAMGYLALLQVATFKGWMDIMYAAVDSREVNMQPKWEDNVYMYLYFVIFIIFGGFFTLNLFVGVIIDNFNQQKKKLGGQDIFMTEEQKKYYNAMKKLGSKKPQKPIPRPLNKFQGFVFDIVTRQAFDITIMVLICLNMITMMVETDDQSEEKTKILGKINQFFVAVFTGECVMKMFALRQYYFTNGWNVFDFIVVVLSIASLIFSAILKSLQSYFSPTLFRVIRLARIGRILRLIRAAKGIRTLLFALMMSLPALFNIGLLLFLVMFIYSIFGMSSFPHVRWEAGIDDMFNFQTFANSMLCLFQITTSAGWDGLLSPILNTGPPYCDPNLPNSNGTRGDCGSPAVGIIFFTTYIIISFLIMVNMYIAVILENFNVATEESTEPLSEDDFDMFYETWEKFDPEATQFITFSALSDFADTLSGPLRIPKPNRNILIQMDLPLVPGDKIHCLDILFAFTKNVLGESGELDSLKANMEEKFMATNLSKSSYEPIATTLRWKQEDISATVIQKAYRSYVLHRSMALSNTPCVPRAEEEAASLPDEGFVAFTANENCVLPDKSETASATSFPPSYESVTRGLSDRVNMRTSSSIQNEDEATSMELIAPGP
Sequence of human Nav1.8 (Q07699 19-218 partner): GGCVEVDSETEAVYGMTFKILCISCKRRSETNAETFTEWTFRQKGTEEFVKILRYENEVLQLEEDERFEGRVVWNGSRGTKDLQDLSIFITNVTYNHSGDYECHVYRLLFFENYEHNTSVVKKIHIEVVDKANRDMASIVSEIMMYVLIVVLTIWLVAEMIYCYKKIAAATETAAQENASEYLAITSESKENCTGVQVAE

Where the note is “from COc1ccc(N2CN(c3ccc(F)cc3CCCCN)c3ccc(C(F)(F)F)cc3C2=O)c(Br)n1, cn_pd bond, 12-membered ring, Pd2(dba)3/BINAP/NaOtBu, toluene, 71.0 mM, 90.0 °C, 3.0 h”, `COc1ccc2c(n1)NCCCCc1cc(F)ccc1N1CN2C(=O)c2cc(C(F)(F)F)ccc21` returned a ring closure, isolated yield of 40%.
`COc1ccc2c(n1)N(C(=O)OC(C)(C)C)CCCc1c(ccc(F)c1F)Nc1cc(C(F)(F)F)c(F)cc1C(=O)N2` registered a ring closure, isolated yield (from COc1ccc(N)c(N(CCCc2c(Nc3cc(C(F)(F)F)c(F)cc3C(=O)O)ccc(F)c2F)C(=O)OC(C)(C)C)n1, amide bond, 13-membered ring, PyOxim/DIEA, DMF, 129.0 mM, 24.0 h) of 72%.
For `O=C1c2cc(C(F)(F)F)ccc2N2CN1c1ccncc1CC=CCCc1cc(F)ccc12`, the ring closure, isolated yield (from C=CCCc1cc(F)ccc1N1CN(c2ccncc2CC=C)C(=O)c2cc(C(F)(F)F)ccc21, rcm bond, 12-membered ring, Greencat-iPr, DCE, 80.0 °C, 4.0 h) worked out at 40%.
Take `COc1ccc2c(n1)CCC=CCc1cc(F)ccc1N1CN2C(=O)c2cc(Cl)cnc21`: the ring closure, isolated yield (from C=CCCc1nc(OC)ccc1N1CN(c2ccc(F)cc2CC=C)c2ncc(Cl)cc2C1=O, rcm bond, 12-membered ring, Hoveyda-Grubbs II, DCE, 80.0 °C, 1.0 h) was 51%.
`COc1ccc2c(n1)CC=CCc1cc(F)ccc1N1CN2C(=O)c2cc(C(F)(F)F)ccc21` yielded a ring closure, isolated yield (from C=CCc1cc(F)ccc1N1CN(c2ccc(OC)nc2CC=C)C(=O)c2cc(C(F)(F)F)ccc21, rcm bond, 11-membered ring, Hoveyda-Grubbs II (20 mol%), DCE, 8.6 mM, 80.0 °C, 16.0 h) of 68%.
`COc1ccc(NC(=O)c2cc(Cl)c(F)cc2Br)c(N(CCCc2cc(F)ccc2N)C(=O)OC(C)(C)C)n1` showed a ring closure, isolated yield (the molecule shown is the open-chain precursor, other bond, 13-membered ring, CuI/DIEA, DMF, 21.9 mM, 95.0 °C) of 29%.
Where the note is “from COc1ccc(N2CN(c3ccc(F)cc3COCCN)c3cc(C(F)(F)F)c(F)cc3C2=O)c(Br)n1, cn_pd bond, 12-membered ring, Pd2(dba)3/BINAP/NaOtBu, toluene, 46.4 mM, 100.0 °C, 4.0 h”, `COc1ccc2c(n1)NCCOCc1cc(F)ccc1N1CN2C(=O)c2cc(F)c(C(F)(F)F)cc21` displayed a ring closure, isolated yield of 37%.
With `COc1ccc2c(n1)CC=CCc1cc(F)ccc1N1CN2C(=O)c2ccc(C(F)(F)F)cc21`, where the note is “from C=CCc1cc(F)ccc1N1CN(c2ccc(OC)nc2CC=C)C(=O)c2ccc(C(F)(F)F)cc21, rcm bond, 11-membered ring, Hoveyda-Grubbs II (20 mol%), DCE, 8.6 mM, 80.0 °C, 16.0 h”, the ring closure, isolated yield came out at 52%.
In the case of `COc1ccc2c(n1)C=CCc1cc(F)ccc1N1CN2C(=O)c2cc(C(F)(F)F)ccc21`, the ring closure, isolated yield (from C=CCc1cc(F)ccc1N1CN(c2ccc(OC)nc2C=C)C(=O)c2cc(C(F)(F)F)ccc21, rcm bond, 10-membered ring, Hoveyda-Grubbs II (20 mol%), DCE, 1.38 mM, 80.0 °C, 4.0 h) came to 72%.
In the case of `COc1ccc2c(n1)N(C(=O)OC(C)(C)C)CCCc1cc(F)ccc1Nc1ccc(C(F)(F)F)cc1C(=O)N2`, the ring closure, isolated yield (from COc1ccc(N)c(N(CCCc2cc(F)ccc2Nc2ccc(C(F)(F)F)cc2C(=O)O)C(=O)OC(C)(C)C)n1, amide bond, 13-membered ring, PyOxim/DIEA, DMF, 95.4 mM, 2.0 h) came to 80%.
With `COc1ccc2c(n1)CC=CCCc1cc(F)ccc1N1CN2C(=O)c2cc(C(F)(F)F)ccc21`, the ring closure, isolated yield (from C=CCCc1cc(F)ccc1N1CN(c2ccc(OC)nc2CC=C)C(=O)c2cc(C(F)(F)F)ccc21, rcm bond, 12-membered ring, Hoveyda-Grubbs II (20 mol%), DCE, 50.3 mM, 80.0 °C, 18.0 h) is 67%.
“3^4-fluoro-1^6-methoxy-2^7-(trifluoromethyl)-2^1,2^2,2^3,2^4-tetrahydro-4-oxa-2(3,1)-quinazolina-1(3,2)-pyridina-3(1,2)-benzenacyclo octaphane-6-en-2^4-one”: the ring closure, isolated yield (rcm bond, 12-membered ring, Hoveyda-Grubbs M722 (Grubbs C711), 80.0 °C) turned out to be 7%.
Take `COc1ccc2c(n1)C=CCCc1cc(F)ccc1N1CN2C(=O)c2cc(C(F)(F)F)ncc21`: where the note is “from C=CCCc1cc(F)ccc1N1CN(c2ccc(OC)nc2/C=C\C)C(=O)c2cc(C(F)(F)F)ncc21, rcm bond, 11-membered ring, Hoveyda-Grubbs II, DCE, 80.0 °C, 18.5 h”, the ring closure, isolated yield was 3%.
`Cl.O=C1c2cc(F)c(C(F)(F)F)cc2N2CN1c1ccc(=O)[nH]c1CCNCc1c(Cl)cccc12` [Example 81, 9-Chloro-2-fluoro-3-(trifluoromethyl)-10,11,12,13-tetrahydro-19H-5,18-methanodibenzo-[c,f]pyrido[3,2-j][1,5,9]triazacyclotridecine-15,19(14H)-dione hydrochloride]: on human Nav1.8, the “Nav1.8, pIC50” value was 8.5.
Turning to `O=C1c2cc(C(F)(F)F)ccc2N2CN1c1ccc(=O)[nH]c1CCCOc1cc(F)ccc12` [Example 16, 8-Fluoro-2-(trifluoromethyl)-12,13-dihydro-11H,19H-5,18-methanodibenzo[b,e]pyrido[3,2-i][1]oxa[4,8]diazacyclotridecine-15,19(14H)-dione], on human Nav1.8, the “Nav1.8, pIC50” value is on record as 6.0.
For `O=C1c2cc(F)c(C(F)(F)F)cc2N2CN1c1ccc(=O)[nH]c1NCCCc1c2ccc(F)c1F` [Example 92, 2,8,9-Trifluoro-3-(trifluoromethyl)-10,11,12,13-tetrahydro-19H-5,18-methano-dibenzo[f,i]pyrido[2,3-b][1,4,8]triazacyclotridecine-15,19(14H)-dione, methanesulfonic acid salt], at human Nav1.8, the “Nav1.8, pIC50” value is on record as 8.4.
On to `COc1ccc2c(n1)C(C)(C)CN(C(=O)OC(C)(C)C)Cc1cc(F)ccc1Nc1cc(C(F)(F)F)c(F)cc1C(=O)N2`, for which, for the setting “from COC(=O)c1cc(F)c(C(F)(F)F)cc1Nc1ccc(F)cc1CN(CC(C)(C)c1nc(OC)ccc1N)C(=O)OC(C)(C)C, amide bond, 13-membered ring, LiHMDS, THF, 104.0 mM, 16.0 h”, the ring closure, isolated yield stood at 46%.
Turning to `Cl.O=C1c2cc(Cl)c(C(F)(F)F)cc2N2CN1c1ccc(=O)[nH]c1CCNCc1cc(F)ccc12` [Example 59, 2-Chloro-8-fluoro-3-(trifluoromethyl)-10,11,12,13-tetrahydro-19H-5,18-methanodibenzo[c,f]pyrido[3,2-j][1,5,9]triazacyclotridecine-15,19(14H)-dione hydrochloride], the “Nav1.8, pIC50” value on human Nav1.8 is listed as 7.8.
As for `O=C1c2c(ccc(C(F)(F)F)c2F)N2CN1c1ccc(=O)[nH]c1CCNCc1cc(F)ccc12` [Example 45, 1,8-Difluoro-2-(trifluoromethyl)-10,11,12,13-tetrahydro-19H-5,18-methanodibenzo[c,f]pyrido[3,2-j][1,5,9]triazacyclotridecine-15,19(14H)-dione], the “Nav1.8, pIC50” value on human Nav1.8 amounted to 6.9.
Still for that read-out and setting: next, `CN1CCCCc2cc(F)ccc2N2CN(C(=O)c3ccc(C(F)(F)F)cc32)c2ccc(=O)[nH]c21` [Example 13, 3^4-Fluoro-8-methyl-2^7-(trifluoromethyl)-1^1,1^2,2^1,2^2,2^3,2^4-hexahydro-8-aza-2(3,1)-quinazolina-1(5,6)-pyridina-3(1,2)-benzenacyclooctaphan-1^2,2^4-dione]: 7.3.
For the molecule `O=C1c2cc(C(F)(F)F)ccc2N2CN1c1ccc(=O)[nH]c1NCCOc1cc(F)ccc12` [Example 15, 8-Fluoro-2-(trifluoromethyl)-12,13-dihydro-11H,19H-5,18-methanodibenzo[i,j]pyrido[2,3-e][1]oxa[4,7,11]triazacyclotridecine-15,19(14H)-dione], the “Nav1.8, pIC50” value on human Nav1.8 turned out to be 5.7.
With `O=C1c2ccc(C(F)(F)F)nc2N2CN1c1ccc(=O)[nH]c1CCCCCc1cc(F)ccc12` [Example 22, 3^4-Fluoro-2^7-(trifluoromethyl)-1^1,1^2,2^1,2^2,2^3,2^4-hexahydro-2(3,1)-pyrido[2,3-d]pyrimidina-1(5,6)-pyridina-3(1,2)-benzenacyclooctaphane-1^2,2^4-dione], the “Nav1.8, pIC50” value on human Nav1.8 was 7.6.
In the case of `Cl.O=C1c2cc(Cl)c(F)cc2N2CN1c1ccc(=O)[nH]c1NCCCc1c2ccc(F)c1F` [Example 101, 2-Chloro-3,8,9-trifluoro-10,11,12,13-tetrahydro-19H-5,18-methanodibenzo[f,i]pyrido[2,3-b]-[1,4,8]triazacyclotridecine-15,19(14H)-dione, hydrochloride], the “Nav1.8, pIC50” value on human Nav1.8 is reported as 7.8.
As for `Cl.O=C1c2cc(F)c(C(F)(F)F)cc2N2CN1c1ccc(=O)[nH]c1NCCNCc1c2ccc(F)c1F` [Example 135, 2^6,3^3,3^4-Trifluoro-2^7-(trifluoromethyl)-1^1,1^2,2^1,2^2,2^3,2^4-hexahydro-5,8-diaza-2(3,1)-quinazolina-1(5,6)-pyridina-3(1,2)-benzenacyclooctaphane-1^2,2^4-dione hydrochloride], at human Nav1.8, the “Nav1.8, pIC50” value was determined as 7.4.
Regarding `N#Cc1cc2c(cc1Cl)C(=O)N1CN2c2ccc(F)cc2CNCCc2[nH]c(=O)ccc21` [Example 55, 2-Chloro-8-fluoro-15,19-dioxo-10,11,12,13,14,15-hexahydro-19H-5,18-methano-dibenzo[c,f]pyrido[3,2-j][1,5,9]triazacyclotridecine-3-carbonitrile], the “Nav1.8, pIC50” value on human Nav1.8 was 7.2.
